Measured values reported in patent publication US9139532B2, “Pyrazolyl guanidine F1F0-atpase inhibitors and therapeutic uses thereof” (Lycera Corporation, priority 2010, dated 2015).
Like-named read-outs stand apart in the source and are kept apart here.

How the values were obtained:
[1] = target: T1, F1F0-ATPase (Bos taurus, UniProt P13621); assay: Inhibition of F1F0-ATPase activity in synthesizing ATP; type: biochemical; settings: inhibition of ATP synthesis by F1F0-ATPase; read-out: ATP Syn IC50
T1 construct: from tissue

[2] = test system: Ramos cells; assay: Cytotoxicity in Ramos cells; type: cell-based; settings: cytotoxicity in Ramos cells, read-out: Ramos Cell EC50

IC50 [1] [µM] | SMILES | EC50 [2] [µM] | EC50 ([2]; Homo sapiens) [µM]
< 10 | N#Cc1cccc(C(=O)/N=C(\Nc2cc(-c3ccc(F)cc3)n[nH]2)NC2CCC(F)(F)CC2)c1 [Compound A-502] | < 10 | –
< 10 | COCC(C)(C)NC(=NC(=O)c1ccc(F)cc1)Nc1cc(-c2ccc(F)cc2)n[nH]1 [Compound A-505] | – | < 10
< 10 | COCCOCC(C)(C)N/C(=N/C(=O)c1cccc(C#N)c1)Nc1cc(-c2ccc(F)cc2)n[nH]1 [Compound A-506] | < 10 | –
< 10 | CC(C)(C)N/C(=N/C(=O)c1ccc(O)cc1)Nc1cc(-c2ccc(F)cc2)n[nH]1 [Compound A-509] | < 10 | –
< 10 | N#Cc1cccc(C(=O)/N=C(\Nc2cc(-c3ccc(F)cc3)[nH]n2)N[C@@H]2CCOC2)c1 [Compound A-510] | < 10 | –
< 10 | O=C(N=C(Nc1cc(-c2ccc(F)cc2)[nH]n1)NC1CCOC1)c1ccc(F)cc1 (centres unmarked) [Compound A-511] | < 10 | –
< 10 | CC(C)NC(=NC(=O)c1ccc(F)cc1)Nc1cc(-c2ccc(F)cc2)[nH]n1 [Compound A-512] | – | < 10
< 10 | CC(C)CN/C(=N/C(=O)c1ccc(F)cc1)Nc1cc(-c2ccc(F)cc2)[nH]n1 [Compound A-513] | < 10 | –
< 10 | CC(C)(C)CN/C(=N/C(=O)c1ccc(F)cc1)Nc1cc(-c2ccc(F)cc2)[nH]n1 [Compound A-514] | < 10 | –
< 10 | COc1ccc(C(=O)/N=C(/NCC(C)(C)C)Nc2cc(-c3ccc(F)cc3)[nH]n2)cc1 [Compound A-515] | < 10 | –
< 10 | COc1cccc(C(=O)N=C(NCC(C)(C)C)Nc2cc(-c3ccc(F)cc3)n[nH]2)c1 [Compound A-516] | – | < 10
< 10 | CC(C)(C)CN/C(=N/C(=O)c1cccc(C#N)c1)Nc1cc(-c2ccc(F)cc2)[nH]n1 [Compound A-517] | < 10 | –
< 10 | COc1ccc(C(=O)N=C(Nc2cc(-c3ccc(F)cc3)n[nH]2)NC2CCCC2)cc1 [Compound A-518] | – | < 10
< 10 | COc1cccc(C(=O)N=C(Nc2cc(-c3ccc(F)cc3)n[nH]2)NC2CCCC2)c1 [Compound A-519] | – | < 10
< 10 | N#Cc1cccc(C(=O)/N=C(\Nc2cc(-c3ccc(F)cc3)[nH]n2)NC2CCCC2)c1 [Compound A-520] | < 10 | –
< 10 | O=C(N=C(Nc1cc(-c2ccc(F)cc2)n[nH]1)NC1CCCC1)c1ccc(F)cc1 [Compound A-521] | – | < 10
< 10 | CC(C)(C)CNC(=NC(=O)c1ccc(F)c(F)c1)Nc1cc(-c2ccc(F)cc2)n[nH]1 [Compound A-522] | – | < 10
< 10 | COc1ccc(C(=O)/N=C(\Nc2cc(-c3ccc(F)cc3)[nH]n2)NC(C)C)cc1 [Compound A-523] | > 10 | –
< 10 | COc1cccc(C(=O)/N=C(\Nc2cc(-c3ccc(F)cc3)[nH]n2)NC(C)C)c1 [Compound A-524] | < 10 | –
< 10 | CC(C)(C)NC(=NC(=O)c1cccc(O)c1)Nc1cc(-c2ccc(F)cc2)n[nH]1 [Compound A-525] | – | < 10

IC50 [1] [µM] | SMILES | EC50 [2] [µM] | EC50 ([2]; Homo sapiens) [µM]
< 10 | COC[C@H](C)N/C(=N/C(=O)c1cccc(C#N)c1)Nc1cc(-c2ccc(F)cc2)[nH]n1 [Compound A-526] | > 10 | –
< 10 | CC(C)(C)NC(=NC(=O)c1cccc(C#N)c1)Nc1cc(-c2ccc(F)cc2)n[nH]1 [Compound A-527] | – | < 10
< 10 | COCC(C)NC(=NC(=O)c1ccc(C#N)cc1)Nc1cc(-c2ccc(F)cc2)n[nH]1 (centres unmarked) [Compound A-528] | – | > 10
< 10 | CC(C)(C)N/C(=N/C(=O)c1ccc(C#N)cc1)Nc1cc(-c2ccc(F)cc2)[nH]n1 [Compound A-529] | > 10 | –
< 10 | CC(C)(CO)N/C(=N/C(=O)c1ccc(F)cc1)Nc1cc(C(F)(F)F)[nH]n1 [Compound A-531] | > 10 | –
< 10 | O=C(N=C(Nc1cc(C(F)(F)F)n[nH]1)N1CCCC1)c1ccc(C(F)(F)F)cc1 [Compound A-532] | – | > 10
< 10 | COC[C@H](C)NC(=NC(=O)c1ccc(F)cc1)Nc1cc(-c2ccc(F)cc2)n[nH]1 [Compound A-533] | – | < 10
< 10 | COC[C@H](C)N/C(=N/C(=O)c1ccc(C)cc1)Nc1cc(C(F)(F)F)[nH]n1 [Compound A-534] | < 10 | –
< 10 | COC[C@H](C)N/C(=N/C(=O)c1ccc(C)c(F)c1)Nc1cc(C(F)(F)F)[nH]n1 [Compound A-535] | < 10 | –
< 10 | COC[C@H](C)N/C(=N/C(=O)c1ccc(OC)cc1)Nc1cc(C(F)(F)F)[nH]n1 [Compound A-536] | < 10 | –
< 10 | COCC(C)NC(=NC(=O)c1cccc(OC)c1)Nc1cc(C(F)(F)F)n[nH]1 (centres unmarked) [Compound A-537] | – | < 10
< 10 | CC(C)(CO)N/C(=N/C(=O)c1ccc(F)cc1)Nc1cc(-c2ccc(F)cc2)n[nH]1 [Compound A-538] | – | > 10
< 10 | COc1ccc(C(=O)/N=C(\Nc2cc(-c3ccc(F)cc3)[nH]n2)NC(C)(C)C)cc1 [Compound A-539] | < 10 | –
< 10 | COc1cccc(C(=O)N=C(Nc2cc(-c3ccc(F)cc3)n[nH]2)NC(C)(C)C)c1 [Compound A-540] | – | < 10
< 10 | COc1ccc(C(=O)N=C(NCc2ccc(F)cc2Cl)Nc2cc(C(F)(F)F)n[nH]2)cc1 [Compound A-541] | – | < 10
< 10 | COc1cccc(C(=O)N=C(NCc2ccc(F)cc2Cl)Nc2cc(C(F)(F)F)n[nH]2)c1 [Compound A-542] | – | < 10
< 10 | COc1ccccc1C(=O)N=C(NCc1ccc(F)cc1Cl)Nc1cc(C(F)(F)F)n[nH]1 [Compound A-543] | – | < 10
< 10 | CC(C)(C)NC(=NC(=O)c1ccccc1)Nc1cc(C(F)(F)F)n[nH]1 [Compound A-544] | – | < 10
< 10 | O=C(/N=C(\Nc1cc(C(F)(F)F)[nH]n1)NC1CCCC1)c1ccccc1 [Compound A-545] | < 10 | –
< 10 | Cc1ccc(C(=O)/N=C(\Nc2cc(C(F)(F)F)[nH]n2)NC2CCCC2)cc1F [Compound A-546] | < 10 | –

IC50 [1] [µM] | SMILES | EC50 [2] [µM] | EC50 ([2]; Homo sapiens) [µM]
< 10 | Cc1ccc(C(=O)/N=C(\Nc2cc(C(F)(F)F)[nH]n2)NC2CCCC2)cc1 [Compound A-547] | < 10 | –
< 10 | O=C(N=C(Nc1cc(C(F)(F)F)n[nH]1)NC1CCCC1)c1ccc(F)cc1 [Compound A-548] | – | < 10
< 10 | Cc1ccc(C(=O)N=C(NCc2ccc(F)cc2Cl)Nc2cc(C(F)(F)F)n[nH]2)cc1 [Compound A-549] | – | < 10
< 10 | Cc1ccc(C(=O)/N=C(\Nc2cc(-c3ccc(F)cc3)[nH]n2)NC(C)(C)C)cc1 [Compound A-550] | < 10 | –
< 10 | Cc1cccc(C(=O)/N=C(/NCc2ccc(F)cc2Cl)Nc2cc(C(F)(F)F)[nH]n2)c1 [Compound A-551] | < 10 | –
< 10 | Cc1cccc(C(=O)N=C(Nc2cc(-c3ccc(F)cc3)n[nH]2)NC(C)(C)C)c1 [Compound A-552] | – | < 10
< 10 | Cc1ccc(C(=O)N=C(NCc2ccc(F)cc2Cl)Nc2cc(C(F)(F)F)n[nH]2)cc1F [Compound A-553] | – | < 10
< 10 | Cc1ccc(C(=O)/N=C(\Nc2cc(-c3ccc(F)cc3)[nH]n2)NC(C)(C)C)cc1F [Compound A-554] | < 10 | –
< 10 | Cc1cc(C(=O)/N=C(/NCc2ccc(F)cc2Cl)Nc2cc(C(F)(F)F)[nH]n2)ccc1F [Compound A-555] | < 10 | –
< 10 | Cc1cc(C(=O)N=C(Nc2cc(-c3ccc(F)cc3)n[nH]2)NC(C)(C)C)ccc1F [Compound A-556] | – | < 10
> 10 | O=C(/N=C(\Nc1cc(C(F)(F)F)[nH]n1)NC1CCC(O)CC1)c1ccc(Cl)c(F)c1 (centres unmarked) [Compound A-557] | > 10 | –
< 10 | O=C(N=C(Nc1cc(C(F)(F)F)n[nH]1)NC1CCC(F)(F)CC1)c1ccc(Cl)c(F)c1 [Compound A-558] | – | < 10
> 10 | O=C(N=C(Nc1cc(C(F)(F)F)n[nH]1)NC1CCC(O)CC1)c1ccc(F)c(F)c1 (centres unmarked) [Compound A-559] | – | > 10
< 10 | O=C(/N=C(\Nc1cc(C(F)(F)F)[nH]n1)NC1CCC(O)CC1)c1ccc(C(F)(F)F)cc1 (centres unmarked) [Compound A-560] | > 10 | –
< 10 | O=C(/N=C(\Nc1cc(C(F)(F)F)[nH]n1)NC1CCC(F)(F)CC1)c1ccc(C(F)(F)F)cc1 [Compound A-561] | < 10 | –
> 10 | O=C(/N=C(/NCC(O)CO)Nc1cc(C(F)(F)F)n[nH]1)c1ccc(F)cc1 (centres unmarked) [Compound A-562, (Z)—N-(((2,3-Dihydroxypropyl)amino)((3-(trifluoromethyl)-1H-pyrazol-5-yl)amino)methylene)-4-fluorobenzamide] | – | > 10
< 10 | CC(C)(C)N/C(=N/C(=O)c1ccc(C(F)(F)F)cc1)Nc1cc(-c2ccccc2O)n[nH]1 [Compound A-563, (Z)—N-((tert-Butylamino)((3-(2-hydroxyphenyl)-1H-pyrazol-5-yl)amino)methylene)-4-(trifluoromethyl)benzamide] | – | < 10
< 10 | CC(C)(C)N/C(=N/C(=O)c1ccc(C(F)(F)F)cc1)Nc1cc(-c2cccc(O)c2)n[nH]1 [Compound A-564, (Z)—N-((tert-Butylamino)((3-(3-hydroxyphenyl)-1H-pyrazol-5-yl)amino)methylene)-4-(trifluoromethyl)benzamide] | – | < 10
